The compound `O=C(CNS(=O)(=O)Cc1ccccc1)Nc1c(F)cccc1F` [DR-1, N-(2,6-difluorophenyl)-2-phenylmethanesulfonylaminoacetamide] had a melting point of 141 to 142 °C.

On to `Cc1ccc(S(=O)(=O)NCC(=O)Nc2c(F)cccc2F)cc1` [DR-2, N-(2,6-Difluoro-phenyl)-2-(toluene-4-sulfonylamino)-acetamide], for which the melting point was in the range of 129 to 130 °C.

The compound `CC(NC(=O)CNS(=O)(=O)Cc1ccccc1)c1ccccc1` (stereo not drawn) [DR-3, N-(1-Phenyl-ethyl)-2-phenylmethanesulfonylamino-acetamide] gave a melting point of 147 to 148 °C.

The compound `Cc1ccc(S(=O)(=O)NCC(=O)NCc2ccc(Br)cc2)cc1` [DR-10, N-(4-Bromo-benzyl)-2-(toluene-4-sulfonylamino)-acetamide] registered a melting point of 207 to 208 °C.

Take `Cc1ccc(S(=O)(=O)NCC(=O)NCc2ccc(Br)cc2F)cc1` [DR-11, N-(4-Bromo-2-fluoro-benzyl)-2-(toluene-4-sulfonylamino)-acetamide]: the melting point was 123 to 124 °C.

`O=C(CNS(=O)(=O)Cc1ccccc1)Nc1cccc(Br)c1` [DR-12, N-(3-bromophenyl)-2-phenylmethanesulfonylaminoacetamide] gave a melting point of 215 to 216 °C.

Regarding `O=C(CNS(=O)(=O)Cc1ccccc1)Nc1ccc(Cl)cc1` [DR-14, N-(4-Chloro-phenyl)-2-phenylmethanesulfonylamino-acetamide], the melting point lay within 200 to 201 °C.

The compound `Cc1ccc(/C=C/S(=O)(=O)NCC(=O)NCc2ccc(Br)cc2)cc1` [DR-31, N-(4-Bromo-benzyl)-2-(2-p-tolyl-ethenesulfonylamino)-acetamide] yielded a melting point of 200 to 201 °C.

Turning to `COc1ccc(NC(=O)CNS(=O)(=O)/C=C/c2ccc(C)cc2)cc1` [DR-32, N-(4-Methoxy-phenyl)-2-(2-p-tolyl-ethenesulfonylamino)-acetamide], the melting point was in the range of 145 to 146 °C.

Consider `Cc1ccc(/C=C/S(=O)(=O)NCC(=O)Nc2ccc(Br)cc2)cc1` [DR-33, N-(4-Bromo-phenyl)-2-(2-p-tolyl-ethenesulfonylamino)-acetamide], for which the melting point was 216 to 219 °C.

In turn, `O=C(/C=C/c1ccc(Cl)cc1)NC(=S)NNC(=O)Cc1cccs1` [LW-1, 3-(4-Chloro-phenyl)-N—[N′-(2-thiophen-2-yl-acetyl)-hydrazinocarbothioyl]-acrylamide] showed a melting point of 232 to 233 °C.

`O=C(/C=C/c1c(Cl)cc(Cl)cc1Cl)NC(=S)NNC(=O)Cc1cccs1` [LW-2, N—[N′-(2-Thiophen-2-yl-acetyl)-hydrazinocarbothioyl]-3-(2,4,6-trichloro-phenyl)-acrylamide] showed a melting point of 219 to 220 °C.

`O=C(/C=C/c1ccc([N+](=O)[O-])cc1)NC(=S)NNC(=O)Cc1cccs1` [LW-3, 3-(4-Nitro-phenyl)-N—[N′-(2-thiophen-2-yl-acetyl)-hydrazinocarbothioyl]-acrylamide] showed a melting point of 222 to 223 °C.

In turn, `Cc1ccc(/C=C/C(=O)NC(=S)NNC(=O)Cc2cccs2)cc1` [LW-4, N—[N′-(2-Thiophen-2-yl-acetyl)-hydrazinocarbothioyl]-3-p-tolyl-acrylamide] showed a melting point of 212 to 213 °C.

`COc1ccc(/C=C/C(=O)NC(=S)NNC(=O)Cc2cccs2)c(OC)c1` [LW-6, 3-(2,4-Dimethoxy-phenyl)-N—[N′-(2-thiophen-2-yl-acetyl)-hydrazinocarbothioyl]-acrylamide] gave a melting point of 207 to 208 °C.

For `O=C(/C=C/c1cc(Br)cc(Br)c1)NC(=S)NNC(=O)Cc1cccs1` [LW-7, 3-(3,5-Dibromo-phenyl)-N—[N′-(2-thiophen-2-yl-acetyl)-hydrazinocarbothioyl]-acrylamide], the melting point lay within 212 to 213 °C.

Regarding `CC(C)c1ccc(/C=C/C(=O)NC(=S)NNC(=O)Cc2cccs2)cc1` [LW-8, 3-(4-Isopropyl-phenyl)-N—[N′-(2-thiophen-2-yl-acetyl)-hydrazinocarbothioyl]-acrylamide], the melting point fell in the range of 201 to 202 °C.

The compound `O=C(/C=C/c1ccc(-c2ccccc2)cc1)NC(=S)NNC(=O)Cc1cccs1` [LW-9, 3-Biphenyl-4-yl-N—[N′-(2-thiophen-2-yl-acetyl)-hydrazinocarbothioyl]-acrylamide] gave a melting point of 231 to 232 °C.

In the case of `COc1cccc(OC)c1/C=C/C(=O)NC(=S)NNC(=O)Cc1cccs1` [LW-10, 3-(2,6-Dimethoxy-phenyl)-N—[N′-(2-thiophen-2-yl-acetyl)-hydrazinocarbothioyl]-acrylamide], the melting point lay within 220 to 221 °C.

Consider `O=C(/C=C/c1c(F)cc(F)cc1F)NC(=S)NNC(=O)Cc1cccs1` [LW-11, N—[N′-(2-Thiophen-2-yl-acetyl)-hydrazinocarbothioyl]-3-(2,4,6-trifluoro-phenyl)-acrylamide], for which the melting point lay within 207 to 208 °C.

In turn, `O=C(/C=C/c1ccc(F)cc1)NC(=S)NNC(=O)Cc1ccccc1` [LW-12, 3-(4-Fluoro-phenyl)-N—(N′-phenylacetyl-hydrazinocarbothioyl)-acrylamide] registered a melting point of 212 to 213 °C.

`O=C(/C=C/c1c(F)cc(F)cc1F)NC(=S)NNC(=O)Cc1ccccc1` [LW-14, N—(N′-Phenylacetyl-hydrazinocarbothioyl)-3-(2,4,6-trifluoro-phenyl)-acrylamide]: the melting point was 210 to 211 °C.

For `O=C(/C=C/c1ccc(F)cc1)NC(=S)NNC(=O)c1cccs1` [LW-16, 3-(4-Fluoro-phenyl)-N—[N′-(thiophene-2-carbonyl)-hydrazinocarbothioyl]-acrylamide], the melting point was 217 to 218 °C.

In turn, `O=C(Cc1cccs1)NNC(=S)NC(=O)Cc1ccccc1` [LW-18, 2-Phenyl-N—[N′-(2-thiophen-2-yl-acetyl)-hydrazinocarbothioyl]-acetamide] gave a melting point of 161 to 162 °C.

In the case of `COc1cccc(OC)c1/C=C/C(=O)NC(=S)NNC(=O)c1cccs1` [LW-19, 3-(2,6-Dimethoxy-phenyl)-N—[N′-(thiophene-2-carbonyl)-hydrazinocarbothioyl]-acrylamide], the melting point was in the range of 209 to 210 °C.

For the compound `O=C(/C=C/c1cc(Br)cc(Br)c1)NC(=S)NNC(=O)c1cccs1` [LW-20, 3-(3,5-Dibromo-phenyl)-N—[N′-(thiophene-2-carbonyl)-hydrazinocarbothioyl]-acrylamide], the melting point was 217 to 218 °C.

The compound `O=C(/C=C/c1cc(Br)cc(Br)c1)NC(=S)NNC(=O)Cc1ccc(F)cc1` [LW-21, 3-(3,5-Dibromo-phenyl)-N-{N′-[2-(4-fluoro-phenyl)-acetyl]hydrazinocarbothioyl}-acrylamide] displayed a melting point of 195 to 196 °C.

`O=C(Cc1ccc(F)cc1)NNC(=S)NC(=O)Cc1ccccc1` [LW-22, N-{N′-[2-(4-Fluoro-phenyl)-acetyl]-hydrazinocarbothioyl}-2-phenyl-acetamide] showed a melting point of 182 to 183 °C.

As to `O=C(/C=C/c1cc(Br)cc(Br)c1)NC(=S)NNC(=O)c1ccccc1` [LW-23, N—(N′-Benzoyl-hydrazinocarbothioyl)-3-(3,5-dibromo-phenyl)-acrylamide], the melting point lay within 224 to 225 °C.

`Cc1cccc(CC(=O)NNC(=S)NC(=O)/C=C/c2cc(Br)cc(Br)c2)c1` [LW-24, 3-(3,5-Dibromo-phenyl)-N—[N′-(2-m-tolyl-acetyl)-hydrazinocarbothioyl]-acrylamide]: the melting point was 203 to 204 °C.

The values above are taken from patent US9216954B2, “Serine racemase inhibitor” (National University Corporation University of Toyama, priority 2012, dated 2015).
